# Source: article PMC7174603, “Functional Analysis of Two Odorant-Binding Proteins, MaltOBP9 and MaltOBP10, in Monochamus alternatus Hope” (Frontiers in Physiology, 2020)
# Tests used:
# [1] = biological target: T1, MaltOBP10 (Monochamus alternatus, UniProt A0A1I9HZL5); assay: fluorescence competitive binding, 1-NPN displacement; conditions: read-out: MaltOBP10 / pH7.4
# T1 construct: gene obp10; said to encode mature protein (clone primer starts at ATG)
# T1 sequence (A0A1I9HZL5 1-144 limits assumed): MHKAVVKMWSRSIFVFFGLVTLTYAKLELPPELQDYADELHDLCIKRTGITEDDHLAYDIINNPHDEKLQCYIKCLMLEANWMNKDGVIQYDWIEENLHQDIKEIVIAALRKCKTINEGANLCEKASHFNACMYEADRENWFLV
# Excerpt: fluorescence competitive binding, 1-NPN displacement on MaltOBP10
# [2] = biological target: T2, MaltOBP9 (Monochamus alternatus, UniProt A0A1I9HZK8); assay: as above; conditions: read-out: MaltOBP9 / pH7.4
# T2 construct: gene obp9; said to encode mature protein (clone primer starts at ATG)
# T2 sequence (A0A1I9HZK8 1-140 limits assumed): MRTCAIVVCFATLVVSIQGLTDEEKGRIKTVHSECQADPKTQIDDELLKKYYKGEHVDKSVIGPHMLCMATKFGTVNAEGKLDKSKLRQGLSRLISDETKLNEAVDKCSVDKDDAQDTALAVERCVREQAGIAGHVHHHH
# Excerpt: fluorescence competitive binding, 1-NPN displacement on MaltOBP9
# [3] = biological target: T1, MaltOBP10; assay: biochemical; set-up: 1-NPN fluorescence displacement competitive binding to 2 uM recombinant OBP; Ki from IC50
# Procedure: (§1) Fluorescence-binding assays were performed to determine the binding affinities of MaltOBP9 and MaltOBP10 with 17 volatiles in neutral and acidic pH conditions separately using N-phenyl-1-naphthylamine (1-NPN) as the fluorescent probe. 1-NPN and all of the other chemicals used in the binding assays were purchased from Sigma-Aldrich (St. Louis, MO, United States). All of the ligand stock solutions were prepared in spectrophotometric grade methanol. The binding constants for 1-NPN were determined by adding aliquots of 1 mM 1-NPN to separate samples containing 2 μM of each OBP in 50 mM Tris–HCl at pH 7.4 and room temperature. The binding of 1-NPN was measured at an excitation wavelength of 337 nm and the fluorescence intensity was recorded between 300 and 600 nm during a high-speed scan using an RF-5301PC fluorescence spectrophotometer with a 1-cm light path and a quartz cuvette. Saturation curves were constructed for the binding of 1-NPN with the OBPs and the dissociation constant (Kd) of the binding reaction was calculated by performing Scatchard analysis of the data using the Prism 5 program (GraphPad, La Jolla, CA, United States). The binding analyses were performed based on the assumption that the protein was completely active and that the stoichiometry of binding was 1:1 at saturation. Aliquots of the competitor ligand were added to a sample containing 2 μM of each separate OBP and a standard concentration of 1-NPN. […] The binding data were collected during three independent high-speed scans. Ki representing the Kd of the competitor was determined based on the IC50 value (half maximal inhibitory concentration) for the competitor as the concentration of the competitor that displaced 50% of the bound 1-NPN at a standard total 1-NPN concentration (bound plus free) at equilibrium. Ki was calculated according to the following equation: Ki = [IC50]/(1+[1-NPN]/K), where 1-NPN is the free concentration of 1-NPN and K1–NPN is Kd for the 1-NPN-OBP binding reaction determined by Scatchard analysis ([Campanacci et al., 2001]). After confirmation by SDS-PAGE, the purified MaltOBP9 and MaltOBP10 proteins were used in fluorescence-binding assays to determine their binding affinities with different volatiles that come from forest. First, we analyzed the binding of the fluorescent probe 1-NPN with MaltOBP9 and MaltOBP10 (Figure 6). […] The binding affinities (Ki < 50) ([Zheng et al., 2016]) with all of the ligands indicted the broad binding ranges of MaltOBP9 and MaltOBP10 at pH 7.4. […] The change in the pH appeared to have less impact on the binding with MaltOBP10.
# [4] = biological target: T2, MaltOBP9; assay: biochemical; set-up: 1-NPN fluorescence displacement competitive binding to 2 uM recombinant OBP; Ki from IC50
# Procedure: as §1
# [5] = biological target: T1, MaltOBP10; assay: fluorescence titration, Scatchard analysis; type: binding; conditions: read-out: MaltOBP10 / pH7.4
# Excerpt: fluorescence titration, Scatchard analysis on MaltOBP10
# [6] = biological target: T1, MaltOBP10; assay: biochemical; set-up: direct 1-NPN fluorescence saturation binding to 2 uM recombinant OBP; Kd by Scatchard analysis; conditions: pH 5.0; read-out: MaltOBP10 / pH5.0
# Procedure: (§2) Fluorescence-binding assays were performed to determine the binding affinities of MaltOBP9 and MaltOBP10 with 17 volatiles in neutral and acidic pH conditions separately using N-phenyl-1-naphthylamine (1-NPN) as the fluorescent probe. 1-NPN and all of the other chemicals used in the binding assays were purchased from Sigma-Aldrich (St. Louis, MO, United States). All of the ligand stock solutions were prepared in spectrophotometric grade methanol. The binding constants for 1-NPN were determined by adding aliquots of 1 mM 1-NPN to separate samples containing 2 μM of each OBP in 50 mM Tris–HCl at pH 7.4 and room temperature. The binding of 1-NPN was measured at an excitation wavelength of 337 nm and the fluorescence intensity was recorded between 300 and 600 nm during a high-speed scan using an RF-5301PC fluorescence spectrophotometer with a 1-cm light path and a quartz cuvette. Saturation curves were constructed for the binding of 1-NPN with the OBPs and the dissociation constant (Kd) of the binding reaction was calculated by performing Scatchard analysis of the data using the Prism 5 program (GraphPad, La Jolla, CA, United States). […] Ki was calculated according to the following equation: Ki = [IC50]/(1+[1-NPN]/K), where 1-NPN is the free concentration of 1-NPN and K1–NPN is Kd for the 1-NPN-OBP binding reaction determined by Scatchard analysis ([Campanacci et al., 2001]). […]
# [7] = biological target: T2, MaltOBP9; assay: biochemical; set-up: direct 1-NPN fluorescence saturation binding to 2 uM recombinant OBP; Kd by Scatchard analysis; conditions: pH 5.0; read-out: MaltOBP9 / pH5.0
# Procedure: as §2
# [8] = biological target: T2, MaltOBP9; assay: fluorescence titration, Scatchard analysis; type: binding; conditions: read-out: MaltOBP9 / pH7.4
# Excerpt: fluorescence titration, Scatchard analysis on MaltOBP9
# [9] = pH 5.0, read-out: MaltOBP10 / pH5.0
# [10] = pH 5.0, read-out: MaltOBP9 / pH5.0
# [11] = pH 7.4, read-out: MaltOBP10 / pH7.4
# [12] = pH 7.4, read-out: MaltOBP9 / pH7.4
SMILES,"Ki [3, 9]","Ki [3, 11]","Ki [4, 12]",Ki [1],Ki [2],"Ki [4, 10]",also measured
C=CC(=C)CCC=C(C)C [Myrcene],19.37 ± 0.02 µM,–,–,12.4 ± 0.5 µM,7.77 ± 0.14 µM,3.96 ± 0.78 µM,–
CC1=CC[C@@H]2[C@@H]3[C@H]1[C@@]2(C)CCCC3(C)C [(+)-α-longipinene],21.2 ± 1.75 µM,–,–,11.6 ± 0.74 µM,12.5 ± 0.67 µM,34.7 ± 0.94 µM,–
C=C1CC/C=C(\C)CC[C@@H]2[C@@H]1CC2(C)C [β-Caryophyllene],23.5 ± 1.72 µM,–,–,16.3 ± 1.97 µM,16.36 ± 0.04 µM,129 ± 9.52 µM,–
CC1=CC[C@@H]2C[C@H]1C2(C)C [(+)-α-pinene],17.3 ± 3.16 µM,–,21.1 ± 2.84 µM,13.3 ± 1.94 µM,–,> 50 µM,–
C=C1CC[C@H]2O[C@]2(C)CC[C@@H]2[C@@H]1CC2(C)C [(−)-caryophyllene oxide],–,–,–,16.4 ± 0.4 µM,15.3 ± 0.94 µM,39.3 ± 0.73 µM,–
Cc1cc(C(C)(C)C)c(O)c(C(C)(C)C)c1 [Butylated hydroxytoluene],–,–,–,20.1 ± 2.75 µM,9.58 ± 0.28 µM,3.57 ± 0.58 µM,–
C=C(C)[C@@H]1CC=C(C)CC1 [S-(−)-Limonene],51.7 ± 5.74 µM,–,29.2 ± 1.81 µM,18.4 ± 0.67 µM,–,12 ± 0.86 µM,–
"C=C(C)C1CCC2(C)OC2C1 (single isomer, unassigned; (+)) [(+)-Limonene oxide]",–,–,–,–,–,–,"Ki ([3]; pH 5.0, binder, read-out: MaltOBP10 / pH5.0): 46.1 ± 4.9 µM; Ki ([3]; pH 7.4, binder, read-out: MaltOBP10 / pH7.4): 19.8 ± 1.78 µM; Ki ([4]; pH 5.0, binder, read-out: MaltOBP9 / pH5.0): 48.8 ± 4.51 µM; Ki ([4]; pH 7.4, binder, read-out: MaltOBP9 / pH7.4): 43.3 ± 0.74 µM"
c1ccc(Nc2cccc3ccccc23)cc1 [1-NPN],–,–,–,–,–,–,Kd [5]: 1.35 ± 0.09 µM; Kd [6]: 5.88 ± 0.69 µM; Kd [7]: 0.62 ± 0.18 µM; Kd [8]: 1.7 ± 0.21 µM
C=C1[C@H]2CC[C@@H]3[C@H]2[C@H](C(C)C)CC[C@]13C [(+)-Sativene],–,–,–,–,–,–,"Ki ([2]; pH 7.4, 50 mM Tris-HCl, room temperature, competitive with 1-NPN, 2 μM protein): 19.5 ± 0.36 µM"
CC1=CCC(=C(C)C)CC1 [α-terpinolene],15.6 ± 1.44 µM,–,22.2 ± 0.34 µM,17.5 ± 0.33 µM,–,18.5 ± 0.23 µM,–

# Continued, in another order:
"Ki [3, 9]","Ki [3, 11]","Ki [4, 12]",SMILES,Ki [1],Ki [2],"Ki [4, 10]",also measured
24.7 ± 1.29 µM,22.7 ± 1.23 µM,27.8 ± 1.04 µM,CC1(C)C(=O)[C@@]2(C)CC[C@@H]1C2 [(+)-Fenchone],–,–,46.2 ± 2.59 µM,–
32.5 ± 4.28 µM,42.5 ± 0.82 µM,25.1 ± 0.76 µM,CC1=CCC2C(C1)C2(C)C (stereo not drawn) [3-carene],–,–,38.12 ± 0.23 µM,–
14.8 ± 0.57 µM,20.6 ± 1.22 µM,22.6 ± 1.08 µM,C=C1[C@@H]2CC[C@@H](C2)C1(C)C [Camphene],–,–,> 50 µM,–
21.2 ± 3.49 µM,26.2 ± 1.76 µM,25.9 ± 0.76 µM,CC1(C)[C@H]2CC[C@]1(C)C(=O)C2 (racemic) [Camphor],–,–,50.5 ± 3.68 µM,–
62.8 ± 1.08 µM,25.8 ± 3.78 µM,–,C=C1CC[C@@H]2C[C@H]1C2(C)C [(+)-β-pinene],–,–,21.7 ± 0.65 µM,–
35.4 ± 0.63 µM,23.8 ± 2.33 µM,–,Cc1ccc(C(C)C)cc1 [p-cymene],–,11.7 ± 0.23 µM,> 50 µM,–
55.5 ± 9.88 µM,23.9 ± 1.89 µM,–,C=C(C)[C@H]1CC=C(C)CC1 [R-(+)-Limonene],–,17.1 ± 2.24 µM,> 50 µM,–
